The results in this text go back to patent publication US4061637A, “Certain 4-aryl-5-(4-phenylpiperazino)alkyl-4-thiazolin-2-ones” (priority 1974, dated 1977).

The structures appear in SMILES notation. Converted amounts (≈) assume the structure as drawn. Where a name gives a salt, the structure may show the parent alone. Read-outs that look alike come from different tables or passages of the source.

Data set [1] can be described thus: Acute toxicity rat LD50 iv. The following applies: in vivo.
A further data set relates to nor-adrenalin. The data set is described as follows: Antagonism towards a lethal dose of nor-adrenalin in the rat (α-adrenolytic activity). The following applies: for ED50: po, 1 h, read-out: α-adrenolytic activity lethal NA rat ED50. It counts as in vivo. The procedure: Antagonism towards a lethal dose of nor-adrenalin in the rat
The animals are treated with a dose of nor-adrenalin (0.5 mg/kg) which is 100% lethal in animals. The activity is calculated by the number of animals protected from death by prior administration of the drug under examination one hour before the agonist. Where possible the ED50 was calculated.

Data set [2] concerns Rabbit platelet aggregation. The data set is described as follows: Rabbit platelet aggregation in vitro. It counts as cell-based. The following applies: Oryctolagus cuniculus, rabbit PRP, aggregation by sodium adenosine diphosphate, read-out: Platelet anti-aggregation activity, rabbit in vitro ED50. The procedure:
Rabbit platelet aggregation in vitro The method of […] (Pharmacology, 7, 115, 1972) was followed. Blood taken from conscious rabbits is centrifuged in the presence of sodium citrate (3.8%) at 350 g. for 10 minutes, so as to separate the plasma rich in platelets (PRP) from the rest. The aggregation of the platelets is carried out by bringing the PRP into contact with adequate doses of sodium adenosine diphosphate in the presence of a possible inhibitor or its carrier. The measurement of aggregation is made continuously by a turbidimetric method.

Data set [3] can be described thus: Fibrillation induced by CaCl2 of the rat anaesthetised with urethane (anti-arrhythmic activity). It counts as in vivo. The following applies: for selectivity ratio: in vivo, LD50 rat iv / ED50 CaCl2, read-out: I.T. (1), therapeutic index from the ratio LD50 rat iv/ED50; for ED50: rat anaesthetised with urethane, iv. The procedure: Fibrillation induced by CaCl2 of the rat anaesthetised with urethane (1 g/kg ip)
The method described by Malinow and colleagues (Rev. Argent. Cardiol., 19, 120, 1952) was followed, which consists of inducing cardiac fibrillation by administering intravenously 2 ml/kg of an 8% solution of CaCl2 in rats pretreated intravenously with scalar doses of anti-arrhythmics. The ED50 was calculated for each active drug.

Data set [4] can be described thus: Arrhythmias induced by electrical stimulation of the isolated rabbit atrium (anti-arrhythmic activity). Particulars: TD / ED30, isolated rabbit atrium; read-out: I.T. (2), therapeutic index from the ratio TD/ED30. On the procedure:
(§1) The ED30 in the presence of scalar concentrations of anti-arrhythmic substances was measured.

The next data set concerns isolated rabbit atrium. Described as above. Particulars: for EC30: Oryctolagus cuniculus, read-out: anti-arrhythmic activity, Electrical stimulation in isolated rabbit atrium ED30. The procedure: as §1
Data set [5] is described as follows: Inhibition of spontaneous motility in the mouse. Particulars: mouse; for ED50: po, 0.5 h, os, 30 minutes after treatment, read-out: Spontaneous motility inhibition mouse ED50. It counts as in vivo.
Method: This is evaluated by an actophotometric method, which consists of placing the mice, 30 minutes after oral treatment with the drug or the carrier, in a cage provided with a photoelectric cell counter and counting the number of times the photoelectric cell is passed during a 10 minute stay.
Data set [6] in a line: Ulcers by constriction (stress) in the rat. In kind it is in vivo. The following applies: 4 h, rat; for responders at 10 mg/kg / inhibition in vivo at 10 mg/kg: 10 mg/kg ip; for responders at 10 mg/kg / responders at 30 mg/kg: read-out: Anti-ulcer activity, ulcers by stress in the rat, Protected rats %; for inhibition in vivo at 10 mg/kg / inhibition in vivo at 30 mg/kg: read-out: Anti-ulcer activity, ulcers by stress in the rat, Reduction in ulcers %; for responders at 30 mg/kg / inhibition in vivo at 30 mg/kg: 30 mg/kg ip.
Method: The method described by Rossi and colleagues (Compt. Rend. Soc. Biol., 150, 2124, 1956) was followed in which the formation of gastric ulcers is induced by immobilising the animal, in a state of fast for 48 hours, in a net for a period of 4 hours.
The protection given by treatment with the drug under examination before the beginning of the constriction period is evaluated by counting both the ulcers and the number of subjects without ulcers.

Data set [7] can be described thus: Acute toxicity under LD50 mouse. The following applies: in vivo, ip.
The nature of data set [8]: Pinching the tail of the mouse (systemic analgesic activity). In kind it is in vivo. Particulars: po, 0.5 h, mouse, 30 minutes; for inhibition in vivo at 26 mg/kg: 26 mg/kg os.
Method: To evaluate the analgesic activity, the method described by Bianchi and colleagues (Brit. J. Pharmacol., 9, 280, 1954) was followed which consists of applying an arterial pincer to the base of the tail in animals treated orally 30 minutes previously with the drug under examination, observing that the control animals react to the pain by squealing.
Data set [9] can be described thus: Antagonism towards electric shock convulsions in the mouse. It counts as in vivo. Particulars: po, 0.5 h, mouse, 35 volt, read-out: Anti-convulsion activity, electric shock, mouse, % att.; for inhibition in vivo at 26 mg/kg: 26 mg/kg os.
Method: This is evaluated by observing the protection given by pretreatment with the drug (30 minutes) against tonic convulsions obtained by applying a 35 volt current to the eyeballs.
A short description of data set [10]: Carrageen oedema in the conscious rat (anti-inflammatory activity). In kind it is in vivo. Particulars: for ED30: 1 h, ip, one hour before carrageen, read-out: Anti-inflammatory activity carrageenin oedema rat ED30. A general note: The carrageenan paw model is a standard test of acute inflammation.
Method: Anti-inflammatory activity was evaluated by the method of Winter and colleagues (Proc. Soc. Exp. Biol., 111, 544, 1962) by endoperitoneally injecting the product under examination one hour before inducing oedema by injecting 0.05 ml. of a 1% suspension of carrageen (intradermally into the plantar portion of a rear paw).
The difference between the volume of the paw determined plethysmographically one hour before and three hours after the carrageen gives a quantitative estimate of the activity of the product tested. Where possible, the ED30 was calculated.
Data set [11] in a line: Cataleptic activity in the mouse. It counts as in vivo. Particulars: po; mouse, os; read-out: Cataleptic activity mouse ED50.

What is called LD50 is the dose at which mortality reaches 50%. In general, ED50 refers to the dose at which the effect has come halfway, by size or by number of responders. Take `CCN(CC)CCc1sc(=O)[nH]c1-c1ccc(F)cc1` [LR 602, 4-p-fluorophenyl-5-β-diethylaminoethyl-4-thiazolin-2-one]: the LD50 in [1] was 84 mg/kg; in [7], 125 mg/kg. The “α-adrenolytic activity lethal NA rat, percentage activity (ED50 lacking)” value in the data set on nor-adrenalin (rat, 7 mg/kg os) is listed as 0%. Further, the IC50 in data set [2] was 800 µg/mL (≈ 2720 µM). In addition, the selectivity ratio was determined as 24 in [3] and 30 in [4]. Moreover, the ED50 stood at 3.5 mg/kg in data set [3] and 30 mg/kg in data set [5]. The EC30 in the data set on isolated rabbit atrium was found to be 10 µg/mL (≈ 34 µM). Also, the “TD (dose which abolishes the spontaneous contraction of the atrium)” value (“TD” for short) with isolated rabbit atrium (rabbit) was 300 µg/mL. Besides, the responders at 10 mg/kg in data set [6] is 50%. Moreover, the inhibition in vivo at 10 mg/kg in [6] came to 65%. Besides, the figures for the inhibition in vivo at 26 mg/kg in [8] and in [9] were 30% and 0%, respectively.

Take `Cl.O=c1[nH]c(-c2ccc(F)cc2)c(CCN2CCCCC2)s1` [LR 617, 4-p-fluorophenyl-5-β-piperidinoethyl-4-thiazolin-2-one hydrochloride]: the LD50 in [1] amounted to 62 mg/kg; in data set [7] it was 100 mg/kg. Moreover, in the data set with nor-adrenalin (rat, 5 mg/kg os), the “α-adrenolytic activity lethal NA rat, percentage activity (ED50 lacking)” value was determined as 0%. Further, in data set [2], the IC50 stood at 800 µg/mL. For the same molecule, the selectivity ratio in [3] was 15; in data set [4] it was 69. Also, the 50% effective dose (ED50) is 4 mg/kg in [3] and 19.6 mg/kg in data set [5]. The EC30 in the data set on isolated rabbit atrium stood at 4.3 µg/mL. The “TD” value in the data set with isolated rabbit atrium (rabbit) came out at 300 µg/mL. The responders at 10 mg/kg in data set [6] was 10%. Moreover, the inhibition in vivo at 10 mg/kg in [6] is 17%.

For the molecule `Cl.O=c1[nH]c(-c2ccc(F)cc2)c(CCN2CCOCC2)s1` [LR 618, 4-p-fluorophenyl-5-β-morpholinoethyl-4-thiazolin-2-one hydrochloride], the “Anti-inflammatory activity carrageenin oedema rat, percentage activity (ED30 lacking)” value in data set [10] (60 mg/kg ip) is on record as 9.8%. Also, the values for the LD50 in data set [1] and in data set [7] were 130 mg/kg and 250 mg/kg, respectively. Besides, in the data set on nor-adrenalin (rat, 15 mg/kg os), the “α-adrenolytic activity lethal NA rat, percentage activity (ED50 lacking)” value is 0%. For the same molecule, the IC50 in data set [2] was found to be 650 µg/mL. Also, the values for the selectivity ratio in data set [3] and in [4] were 9 and 8.5, respectively. For the same molecule, the ED50 in data set [3] amounted to 15 mg/kg; in data set [5] it was 60 mg/kg; in data set [11] it was 60 mg/kg. In addition, the EC30 in the data set with isolated rabbit atrium is 35.4 µg/mL. Besides, the “TD” value in the data set with isolated rabbit atrium (rabbit) amounted to 300 µg/mL. For the same molecule, the responders at 30 mg/kg in data set [6] was 50%. In data set [6], the inhibition in vivo at 30 mg/kg is 71%. For the same molecule, the inhibition in vivo at 60 mg/kg came to 40% in [8] (60 mg/kg os, read-out: Systemic analgesic activity, tail pinching in mouse, %) and 10% in data set [9] (60 mg/kg os).

For the molecule `COc1ccc(-c2[nH]c(=O)sc2CCN(C)CCc2ccccc2)cc1` [LR 620, 4-p-methoxyphenyl-5-β-(N-methylphenylethylamino)-ethyl-4-thiazolin-2-one maleate], the ED30 in [10] was 36 mg/kg. Also, the 50% lethal dose (LD50) in data set [1] turned out to be 24 mg/kg; in data set [7], 100 mg/kg. The ED50 in the data set on nor-adrenalin (Rattus norvegicus) stood at 5 mg/kg; in data set [3], 2 mg/kg. Moreover, in [2], the IC50 was 650 µg/mL. Besides, the selectivity ratio in data set [3] worked out at 12; in data set [4], 30. For the same molecule, the EC30 in the data set on isolated rabbit atrium was 1 µg/mL. Moreover, in the data set on isolated rabbit atrium (isolated rabbit atrium), the “TD” value turned out to be 30 µg/mL. In data set [5] (26 mg/kg os), the “Spontaneous motility inhibition mouse, percentage activity (ED50 lacking)” value is 0%. Moreover, the responders at 10 mg/kg in data set [6] amounted to 0%. The inhibition in vivo at 10 mg/kg in data set [6] was found to be 0%. The inhibition in vivo at 26 mg/kg in [8] worked out at 0%; in [9], 20%.

With `CN(CCc1ccccc1)CCc1sc(=O)[nH]c1-c1ccccc1.O=C(O)/C=C\C(=O)O` [LR 630, 4-phenyl-5-β-(N-methylphenylethylamino)ethyl-4-thiazolin-2-one maleate], in [10], the ED30 was 145 mg/kg. The ED50 in the data set with nor-adrenalin (rat, os, one hour before nor-adrenalin 0.5 mg/kg) was 16 mg/kg; in data set [5] it was 60 mg/kg; in [11], 180 mg/kg. Further, the responders at 30 mg/kg in [6] was 10%. In addition, the inhibition in vivo at 30 mg/kg in data set [6] was found to be 0%. The molecule also registered a 50% lethal dose (LD50) in [7] of 750 mg/kg. Moreover, the inhibition in vivo at 180 mg/kg was found to be 0% in data set [8] (180 mg/kg os) and 10% in data set [9] (180 mg/kg os).
